According to patent US12233161B1, “Lipids and lipid nanoparticle formulations” (LONGUIDE BIOPHARMA CORPORATION, priority 2024, dated 2025):

Tested on: mice
Assay: In vivo delivery of FLuc-mRNA lipid nanoparticles in mice, in vivo imaging (IVIS)
Details: Fluc-mRNA LNP
Description: After the preparation was completed, the preparation was injected intramuscularly (mice rectus femoris muscle of the thigh), intravenously (mice tail vein), or intraperitoneal injection or subcutaneous injection (subcutaneous on the back), with approximately 75 μL per mouse, for a total of 3 mice. After a certain time of injection, in vivo imaging (PerkinElmer, IVIS Lumina III) was performed. 10-15 minutes before imaging, 200 μL of 15 mg/mL D-Luciferin working solution was injected intraperitoneally, and the imaging analysis was performed using an in vivo imager.

[1] = route IM, organ not given, formulation, molar ratio and N/P as in the table
[2] = route IV, organ not given, formulation, molar ratio and N/P as in the table
[3] = route IV, organ: body, formulation, molar ratio and N/P as in the table
[4] = route IV, organ: liver, formulation, molar ratio and N/P as in the table
[5] = route IV, organ: lung, formulation, molar ratio and N/P as in the table
[6] = route IV, organ: spleen, formulation, molar ratio and N/P as in the table
[7] = route IM, 1 h (live), DSPE-PEG5000:DSPC:Chol:compound 1.40:11.15:38.95:48.50, N/P 30
[8] = route IM, 1 h (lung), DSPE-PEG5000:DSPC:Chol:compound 1.40:11.15:38.95:48.50, N/P 30
[9] = route IM, 1 h (spleen), DSPE-PEG5000:DSPC:Chol:compound 1.40:11.15:38.95:48.50, N/P 30
[10] = route IM, 2 h (live), DSPE-PEG5000:DSPC:Chol:compound 1.40:11.15:38.95:48.50, N/P 30
[11] = route IM, 2 h (lung), DSPE-PEG5000:DSPC:Chol:compound 1.40:11.15:38.95:48.50, N/P 30
[12] = route IM, 2 h (spleen), DSPE-PEG5000:DSPC:Chol:compound 1.40:11.15:38.95:48.50, N/P 30
[13] = route IM, 3 h (live), DSPE-PEG5000:DSPC:Chol:compound 1.40:11.15:38.95:48.50, N/P 30
[14] = route IM, 3 h (lung), DSPE-PEG5000:DSPC:Chol:compound 1.40:11.15:38.95:48.50, N/P 30
[15] = route IM, 3 h (spleen), DSPE-PEG5000:DSPC:Chol:compound 1.40:11.15:38.95:48.50, N/P 30
[16] = route IM, 6 h (live), DSPE-PEG5000:DSPC:Chol:compound 1.40:11.15:38.95:48.50, N/P 30
[17] = route IM, 6 h (lung), DSPE-PEG5000:DSPC:Chol:compound 1.40:11.15:38.95:48.50, N/P 30
[18] = route IM, 6 h (spleen), DSPE-PEG5000:DSPC:Chol:compound 1.40:11.15:38.95:48.50, N/P 30

SMILES: CCCCCCCCCCN(C)C(=O)C(O)CN(CCN(C)CCN(CC(O)C(=O)N(C)CCCCCCCCCC)CC(O)C(=O)N(C)CCCCCCCCCC)CC(O)C(=O)N(C)CCCCCCCCCC (stereo not shown) [Compound L0349]
- IVIS [1]: 8.25E+04
- IVIS [2]: 5.98E+05

SMILES: CCCCCCCCN(C)C(=O)C(O)CN(CCCN(C)CCCN(CC(O)C(=O)N(C)CCCCCCCC)CC(O)C(=O)N(C)CCCCCCCC)CC(O)C(=O)N(C)CCCCCCCC (stereo not shown) [Compound L0350]
- IVIS [1]: 1.75E+05
- IVIS [3]: 8.43E+06
- % of organ targeting [4]: 0.95%
- IVIS [4]: 2.94E+05
- % of organ targeting [5]: 96.29%
- IVIS [5]: 2.99E+07
- % of organ targeting [6]: 2.76%
- IVIS [6]: 8.57E+05

SMILES: CCCCCCCCN(C)C(=O)C(O)CN(C)CCN(C)CCN(C)CC(O)C(=O)N(C)CCCCCCCC (stereo not shown) [Compound L0351]
- IVIS [1]: 1.19E+06
- IVIS [2]: 1.55E+06

SMILES: CCCCCCCCN(C)C(=O)C(O)CN(CCN(C)CCN(CC(O)C(=O)N(C)CCCCCCCC)CC(O)C(=O)N(C)CCCCCCCC)CC(O)C(=O)N(C)CCCCCCCC (stereo not shown) [Compound L0352]
- IVIS [1]: 4.47E+05
- IVIS [3]: 1.95E+06
- % of organ targeting [4]: 15.27%
- IVIS [4]: 4.07E+05
- % of organ targeting [5]: 8.93%
- IVIS [5]: 2.38E+05
- % of organ targeting [6]: 75.80%
- IVIS [6]: 2.02E+06

SMILES: CCCCCCCCCCN(C)C(=O)C(O)CN(CCCN(CC(O)C(=O)N(C)CCCCCCCCCC)CC(O)C(=O)N(C)CCCCCCCCCC)CCCN(CC(O)C(=O)N(C)CCCCCCCCCC)CC(O)C(=O)N(C)CCCCCCCCCC (stereo not shown) [Compound L0353]
- IVIS [1]: 1.68E+07
- IVIS [3]: 1.21E+08
- % of organ targeting [4]: 31.60%
- IVIS [4]: 3.54E+07
- % of organ targeting [5]: 2.97%
- IVIS [5]: 3.33E+06
- % of organ targeting [6]: 65.43%
- IVIS [6]: 7.33E+07

SMILES: CCCCCCCCN(C)C(=O)C(O)CN(CCCN(CC(O)C(=O)N(C)CCCCCCCC)CC(O)C(=O)N(C)CCCCCCCC)CCCN(CC(O)C(=O)N(C)CCCCCCCC)CC(O)C(=O)N(C)CCCCCCCC (stereo not shown) [Compound L0354]
- IVIS [1]: 6.90E+06
- IVIS [3]: 1.35E+08
- % of organ targeting [4]: 44.24%
- IVIS [4]: 3.14E+07
- % of organ targeting [5]: 1.31%
- IVIS [5]: 9.31E+05
- % of organ targeting [6]: 54.45%
- IVIS [6]: 3.86E+07

SMILES: CCCCCCCCCCCCCCN(C)C(=O)C(O)CN(CCCN(C)CCCN(CC(O)C(=O)N(C)CCCCCCCCCCCCCC)CC(O)C(=O)N(C)CCCCCCCCCCCCCC)CC(O)C(=O)N(C)CCCCCCCCCCCCCC (stereo not shown) [Compound L0355]
- IVIS [1]: 2.41E+06
- IVIS [3]: 9.52E+06
- % of organ targeting [4]: 1.66%
- IVIS [4]: 2.63E+05
- % of organ targeting [5]: 84.86%
- IVIS [5]: 1.34E+07
- % of organ targeting [6]: 13.48%
- IVIS [6]: 2.13E+06

SMILES: CCCCCCCCCCCCCCN(C)C(=O)C(O)CN(CCN(C)CCN(CC(O)C(=O)N(C)CCCCCCCCCCCCCC)CC(O)C(=O)N(C)CCCCCCCCCCCCCC)CC(O)C(=O)N(C)CCCCCCCCCCCCCC (stereo not shown) [Compound L0356]
- IVIS [1]: 1.62E+05
- IVIS [3]: 2.19E+06
- % of organ targeting [4]: 7.17%
- IVIS [4]: 1.12E+05
- % of organ targeting [5]: 75.97%
- IVIS [5]: 1.18E+06
- % of organ targeting [6]: 16.86%
- IVIS [6]: 2.63E+05

SMILES: CCCCCCCCCCCCCCN(C)C(=O)C(O)CN(CCCN(CC(O)C(=O)N(C)CCCCCCCCCCCCCC)CC(O)C(=O)N(C)CCCCCCCCCCCCCC)CCCN(CC(O)C(=O)N(C)CCCCCCCCCCCCCC)CC(O)C(=O)N(C)CCCCCCCCCCCCCC (stereo not shown) [Compound L0357]
- IVIS [1]: 3.97E+06
- IVIS [3]: 2.87E+07
- % of organ targeting [4]: 55.56%
- IVIS [4]: 6.55E+06
- % of organ targeting [5]: 1.75%
- IVIS [5]: 2.06E+05
- % of organ targeting [6]: 42.69%
- IVIS [6]: 5.03E+06

SMILES: CCCCCCC(CCCCCC)C(=O)OCCCCCCNC(=O)C(O)CN(CCCN(C)CCCN(CC(O)C(=O)NCCCCCCOC(=O)C(CCCCCC)CCCCCC)CC(O)C(=O)NCCCCCCOC(=O)C(CCCCCC)CCCCCC)CC(O)C(=O)NCCCCCCOC(=O)C(CCCCCC)CCCCCC (stereo not shown) [Compound L0358]
- IVIS [1]: 1.45E+07

SMILES: CCCCCCC(CCCCCC)C(=O)OCCCCCCNC(=O)C(O)CN(CCN(C)CCN(CC(O)C(=O)NCCCCCCOC(=O)C(CCCCCC)CCCCCC)CC(O)C(=O)NCCCCCCOC(=O)C(CCCCCC)CCCCCC)CC(O)C(=O)NCCCCCCOC(=O)C(CCCCCC)CCCCCC (stereo not shown) [Compound L0359]
- IVIS [1]: 2.25E+07
- IVIS [3]: 2.65E+08
- % of organ targeting [4]: 33.50%
- IVIS [4]: 5.06E+07
- % of organ targeting [5]: 6.37%
- IVIS [5]: 9.61E+06
- % of organ targeting [6]: 60.13%
- IVIS [6]: 9.08E+07

SMILES: CCCCCCC(CCCCCC)C(=O)OCCCCCCNC(=O)C(O)CN(CCCN(CC(O)C(=O)NCCCCCCOC(=O)C(CCCCCC)CCCCCC)CC(O)C(=O)NCCCCCCOC(=O)C(CCCCCC)CCCCCC)CCCN(CC(O)C(=O)NCCCCCCOC(=O)C(CCCCCC)CCCCCC)CC(O)C(=O)NCCCCCCOC(=O)C(CCCCCC)CCCCCC (stereo not shown) [Compound L0360]
- IVIS [1]: 1.44E+07
- IVIS [2]: 4.50E+08

SMILES: CCCCCCC(CCCCCC)C(=O)NCCOC(=O)C(O)CN(CCCN(C)CCCN(CC(O)C(=O)OCCNC(=O)C(CCCCCC)CCCCCC)CC(O)C(=O)OCCNC(=O)C(CCCCCC)CCCCCC)CC(O)C(=O)OCCNC(=O)C(CCCCCC)CCCCCC (stereo not shown) [Compound L0361]
- IVIS (route IH, organ: body, DSPE-PEG5000:DSPC:Chol:compound 1.40:11.15:38.95:48.50, N/P 30): 1.54E+08
- IVIS (route IH, organ: spleen, DSPE-PEG5000:DSPC:Chol:compound 1.40:11.15:38.95:48.50, N/P 30): 3.59E+04
- % of organ targeting [7]: 63.15%
- IVIS [7]: 6.62E+05
- % of organ targeting [8]: 4.17%
- IVIS [8]: 4.37E+04
- IVIS (route IM, 1 h (muscle), DSPE-PEG5000:DSPC:Chol:compound 1.40:11.15:38.95:48.50, N/P 30): 1.07E+08
- % of organ targeting [9]: 31.03%
- IVIS [9]: 3.25E+05
- % of organ targeting [10]: 58.75%
- IVIS [10]: 7.54E+06
- % of organ targeting [11]: 1.27%
- IVIS [11]: 1.63E+05
- IVIS (route IM, 2 h (muscle), DSPE-PEG5000:DSPC:Chol:compound 1.40:11.15:38.95:48.50, N/P 30): 1.87E+08
- % of organ targeting [12]: 37.18%
- IVIS [12]: 4.77E+06
- % of organ targeting [13]: 42.49%
- IVIS [13]: 4.54E+06
- % of organ targeting [14]: 4.98%
- IVIS [14]: 5.32E+05
- IVIS (route IM, 3 h (muscle), DSPE-PEG5000:DSPC:Chol:compound 1.40:11.15:38.95:48.50, N/P 30): 2.97E+08
- % of organ targeting [15]: 50.95%
- IVIS [15]: 5.45E+06
- % of organ targeting [16]: 52.52%
- IVIS [16]: 1.17E+07
- % of organ targeting [17]: 2.72%
- IVIS [17]: 6.06E+05
- IVIS (route IM, 6 h (muscle), DSPE-PEG5000:DSPC:Chol:compound 1.40:11.15:38.95:48.50, N/P 30): 2.62E+08
- % of organ targeting [18]: 42.27%
- IVIS [18]: 9.42E+06
- IVIS [1]: 1.14E+08
- IVIS [3]: 4.99E+07
- IVIS [4]: 1.24E+07
- IVIS [5]: 1.36E+07
- IVIS [6]: 5.05E+07
